Where two headings read alike, the source gives them in different places.
Assays:
[1] = biological target: T1, β-galactosidase (Aspergillus oryzae, UniProt Q2UCU3); experiment: glycosidase inhibition, β-galactosidase (Aspergillus oryzae); format: biochemical
Source text: (§1) The glycosidase inhibitory activities (IC50 (µM)) of amidines 5 and 6 on a panel of six glycosidases are presented in table 1 and compared with structurally related isofagomine (3) and amidine 4.

[2] = biological target: β-galactosidase (Escherichia coli, UniProt P00722); experiment: glycosidase inhibition, β-galactosidase (Escherichia coli); format: biochemical
Sequence of β-galactosidase (Escherichia coli, UniProt P00722) (P00722 2-1024 limits assumed): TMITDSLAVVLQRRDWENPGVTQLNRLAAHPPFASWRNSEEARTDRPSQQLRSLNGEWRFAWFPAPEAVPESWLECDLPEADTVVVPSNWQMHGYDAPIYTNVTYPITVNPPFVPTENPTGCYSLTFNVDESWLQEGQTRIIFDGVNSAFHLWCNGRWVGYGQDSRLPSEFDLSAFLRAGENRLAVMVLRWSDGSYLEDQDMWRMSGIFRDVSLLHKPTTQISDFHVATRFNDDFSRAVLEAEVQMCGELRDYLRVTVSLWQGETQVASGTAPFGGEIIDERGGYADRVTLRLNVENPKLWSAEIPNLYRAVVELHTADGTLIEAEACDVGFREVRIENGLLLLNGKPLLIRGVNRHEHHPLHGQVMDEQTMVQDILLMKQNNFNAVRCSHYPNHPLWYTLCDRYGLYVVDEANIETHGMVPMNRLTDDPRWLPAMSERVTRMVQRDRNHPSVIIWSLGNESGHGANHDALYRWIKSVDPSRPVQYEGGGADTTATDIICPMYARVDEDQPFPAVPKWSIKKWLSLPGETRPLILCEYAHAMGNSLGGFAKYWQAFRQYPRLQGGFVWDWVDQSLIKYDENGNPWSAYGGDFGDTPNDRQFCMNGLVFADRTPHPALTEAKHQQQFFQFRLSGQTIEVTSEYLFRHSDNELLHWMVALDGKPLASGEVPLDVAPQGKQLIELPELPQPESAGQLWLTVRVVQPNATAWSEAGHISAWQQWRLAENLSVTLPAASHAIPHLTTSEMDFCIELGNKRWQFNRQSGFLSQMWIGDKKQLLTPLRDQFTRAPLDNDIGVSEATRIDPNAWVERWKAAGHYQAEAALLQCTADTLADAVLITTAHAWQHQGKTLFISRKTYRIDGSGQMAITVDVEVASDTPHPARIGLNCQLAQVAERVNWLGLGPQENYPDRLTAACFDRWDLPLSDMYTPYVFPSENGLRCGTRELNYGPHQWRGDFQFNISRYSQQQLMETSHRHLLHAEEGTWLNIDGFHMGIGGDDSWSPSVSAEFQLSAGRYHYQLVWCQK
Source text: as §1

[3] = biological target: β-glucosidase; experiment: glycosidase inhibition, β-glucosidase; format: biochemical; conditions: β-glucosidase from almonds, pH 6.8
Source text: as §1

[4] = tested on: all tested enzymes (panel of six glycosidases); experiment: glycosidase inhibition, whole panel of six glycosidases; format: biochemical; conditions: for glycosidase inhibition in words: all enzymes in the panel
Source text: as §1

[5] = biological target: α-glucosidase; experiment: glycosidase inhibition, α-glucosidase; format: biochemical; conditions: α-glucosidase from Saccharomyces cerevisiae, pH 6.8
Source text: as §1

[6] = biological target: T2, α-mannosidase (Canavalia ensiformis, UniProt C0HJB3); experiment: glycosidase inhibition, α-mannosidase; format: biochemical; conditions: α-mannosidase from jack beans, pH 5.6
T2 sequence (C0HJB3 1-981): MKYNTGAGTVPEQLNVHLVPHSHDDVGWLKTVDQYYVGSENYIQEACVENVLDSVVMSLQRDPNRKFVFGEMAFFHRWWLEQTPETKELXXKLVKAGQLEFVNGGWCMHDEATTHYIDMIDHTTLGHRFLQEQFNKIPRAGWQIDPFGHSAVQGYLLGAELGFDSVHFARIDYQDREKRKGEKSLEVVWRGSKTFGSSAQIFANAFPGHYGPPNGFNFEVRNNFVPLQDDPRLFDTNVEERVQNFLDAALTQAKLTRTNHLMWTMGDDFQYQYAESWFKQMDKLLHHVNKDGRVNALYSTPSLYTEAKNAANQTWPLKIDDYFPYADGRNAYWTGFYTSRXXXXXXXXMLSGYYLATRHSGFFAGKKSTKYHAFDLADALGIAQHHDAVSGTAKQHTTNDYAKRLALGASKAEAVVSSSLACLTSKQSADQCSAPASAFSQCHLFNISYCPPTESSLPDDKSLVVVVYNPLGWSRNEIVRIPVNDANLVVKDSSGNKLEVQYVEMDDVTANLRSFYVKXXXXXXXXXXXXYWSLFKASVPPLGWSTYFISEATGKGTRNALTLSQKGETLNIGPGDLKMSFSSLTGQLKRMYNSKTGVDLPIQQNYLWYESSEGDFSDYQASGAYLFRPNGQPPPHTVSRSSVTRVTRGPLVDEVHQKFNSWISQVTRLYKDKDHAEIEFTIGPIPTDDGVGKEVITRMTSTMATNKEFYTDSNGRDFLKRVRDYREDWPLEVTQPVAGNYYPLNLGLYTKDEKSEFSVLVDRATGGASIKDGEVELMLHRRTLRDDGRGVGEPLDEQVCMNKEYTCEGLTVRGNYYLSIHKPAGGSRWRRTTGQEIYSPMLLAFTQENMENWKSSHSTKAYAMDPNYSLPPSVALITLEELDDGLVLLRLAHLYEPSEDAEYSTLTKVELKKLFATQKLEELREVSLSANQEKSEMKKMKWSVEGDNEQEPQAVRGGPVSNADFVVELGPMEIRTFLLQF
Source text: as §1

[7] = biological target: T3, α-galactosidase (Coffea arabica, UniProt Q42656); experiment: glycosidase inhibition, α-galactosidase; format: biochemical
T3 sequence (Q42656 16-378): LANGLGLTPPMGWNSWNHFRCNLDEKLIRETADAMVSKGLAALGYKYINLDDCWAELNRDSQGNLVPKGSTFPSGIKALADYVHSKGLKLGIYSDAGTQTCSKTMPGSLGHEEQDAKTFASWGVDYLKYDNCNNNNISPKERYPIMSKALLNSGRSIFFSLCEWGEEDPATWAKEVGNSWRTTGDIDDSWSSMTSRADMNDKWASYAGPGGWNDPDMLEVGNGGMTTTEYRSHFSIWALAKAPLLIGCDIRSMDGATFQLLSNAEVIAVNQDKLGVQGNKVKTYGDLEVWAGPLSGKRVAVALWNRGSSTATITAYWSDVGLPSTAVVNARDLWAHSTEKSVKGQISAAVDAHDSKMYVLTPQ
Source text: as §1

[8] = pKa determination by NMR titration in D2O; format: physicochemical; conditions: for pH* at which degradation started: during NMR titration in D2O; for pKa: D2O
Source text: The pKa values for azasugars have been determined by NMR spectroscopy in other studies. This methodology was also applied in this study to determine the pKa value of 6. […] The sigmoidal curve is missing points at high pH* values (greater than 11) because 6 started degrading at roughly pH* 10.5. Recording of both a ^1H NMR and ^13C HSQC spectra at each titration point allowed us to track the changes in chemical shifts at pH levels higher than where the degradation initially started. The pKa of amidine 5 was determined at even lower accuracy than for 6, because it started degrading at roughly pH* 9.4, where there is no indication of 5 being deprotonated.

[9] = cited from earlier work
[10] = biological target: T3, α-galactosidase; parameters: key to inhibition: NI = no inhibition; conditions: α-galactosidase from green coffee beans, pH 6.8; cited from earlier work
[11] = biological target: β-glucosidase; conditions: cited from earlier work
[12] = biological target: T1, β-galactosidase; conditions: β-galactosidase from Aspergillus oryzae, pH 6.8; cited from earlier work
[13] = biological target: T2, α-mannosidase; conditions: α-mannosidase from jack beans, pH 5.6; cited from earlier work
[14] = β-glucosidase from almonds, pH 6.8

T1 sequence (Q2UCU3 19-1005): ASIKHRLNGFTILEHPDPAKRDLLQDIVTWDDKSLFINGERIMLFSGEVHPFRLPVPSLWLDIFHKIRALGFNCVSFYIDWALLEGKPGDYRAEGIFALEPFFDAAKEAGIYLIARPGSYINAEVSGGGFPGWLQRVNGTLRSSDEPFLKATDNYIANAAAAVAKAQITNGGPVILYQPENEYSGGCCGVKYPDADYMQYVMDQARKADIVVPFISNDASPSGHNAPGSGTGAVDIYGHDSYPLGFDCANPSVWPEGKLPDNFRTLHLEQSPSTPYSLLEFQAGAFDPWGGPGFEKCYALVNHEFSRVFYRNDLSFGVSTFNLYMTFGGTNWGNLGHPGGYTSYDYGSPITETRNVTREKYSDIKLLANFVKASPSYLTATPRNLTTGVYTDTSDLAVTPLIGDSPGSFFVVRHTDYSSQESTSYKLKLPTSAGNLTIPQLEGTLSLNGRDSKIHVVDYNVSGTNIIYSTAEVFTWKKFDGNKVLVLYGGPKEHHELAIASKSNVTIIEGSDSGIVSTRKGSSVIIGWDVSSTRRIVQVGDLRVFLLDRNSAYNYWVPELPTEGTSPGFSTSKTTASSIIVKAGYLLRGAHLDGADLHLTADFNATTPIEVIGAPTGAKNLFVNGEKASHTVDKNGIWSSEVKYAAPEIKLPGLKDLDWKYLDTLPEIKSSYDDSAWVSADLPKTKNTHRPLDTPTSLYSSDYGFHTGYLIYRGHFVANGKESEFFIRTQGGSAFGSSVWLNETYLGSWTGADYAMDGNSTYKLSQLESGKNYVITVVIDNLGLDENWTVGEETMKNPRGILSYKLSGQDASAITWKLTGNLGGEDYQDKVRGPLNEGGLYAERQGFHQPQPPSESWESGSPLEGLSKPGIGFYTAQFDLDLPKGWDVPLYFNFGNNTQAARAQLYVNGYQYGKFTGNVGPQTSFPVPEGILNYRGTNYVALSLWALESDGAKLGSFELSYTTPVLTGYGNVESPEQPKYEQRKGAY

N=C1NC[C@@H](O)[C@H](O)[C@H]1CO [compound 5]
IC50 ([1]; β-galactosidase from Aspergillus oryzae, pH 6.8, read-out: IC50): > 50 µM | IC50 ([2]; β-galactosidase from Escherichia coli, pH 6.8, read-out: IC50): > 50 µM | IC50 [3]: > 50 µM | glycosidase inhibition in words [4]: very poor inhibitor | IC50 ([4]; all tested enzymes, read-out: IC50 against all tested enzymes): > 50 µM | IC50 [5]: > 50 µM | IC50 [6]: > 50 µM | IC50 ([7]; α-galactosidase from green coffee beans, pH 6.8, read-out: IC50): > 50 µM | pH* at which degradation started [8]: ~9.4

NC1=N[C@H](CO)[C@@H](O)[C@H](O)[C@H]1O [compound 2, ᴅ-glucoamidine]
pKa [9]: ≥ 10.5 | fold stronger base than 1 ([9]; compared with 1-deoxynojirimycin (1)): roughly 7900 fold

OC[C@H]1CNC[C@@H](O)[C@@H]1O [compound 3, isofagomine]
IC50 [10]: > 2000 µM | Ki ([11]; almond β-glucosidase): 0.11 µM | Ki [11, 14]: 0.11 µM | IC50 [12]: 270 µM | IC50 [13]: 250 µM

N=C1[C@H](CO)[C@@H](O)[C@H](O)CN1Cc1ccccc1 [compound 6]
IC50 [1]: > 50 µM | IC50 [2]: > 50 µM | IC50 [3]: > 50 µM | glycosidase inhibition in words [4]: very weak inhibitor | IC50 [5]: > 50 µM | IC50 [6]: > 50 µM | IC50 [7]: > 50 µM | pKa ([8]; inflection point of 2-Ha chemical shift versus pH* (pH measured in D2O), read-out: pKa*): > 11 | pKa ([8]; pKa* corrected with a correction factor, read-out: pKa (corrected)): > 10.6 | pH* at which degradation started [8]: ~10.5

N=C1NC[C@H](CO)[C@@H](O)[C@@H]1O [compound 4]
inhibition [10]: NI^g,i | Ki [11, 14]: 450 µM | Ki [12]: 17400 µM | Ki [13]: 0.75 µM

From PMC11836537, “An isofagomine analogue with an amidine group in the 1,6-position” (Royal Society Open Science, 2025)
